Measurements: patent US7205433B2, “Crystal of amino acid ester salt and process for producing the same” (Ajinomoto Co., Inc., priority 2002, dated 2007)

Legend:
Format in all cases: physicochemical
[1] = Experimental Example 4: comparison of hygroscopicity by weight gain over time (40 to 46% RH); settings: 24° C.
Method: The L-Ala-OEt HCl salt, L-Ala-OEt MsOH salt, L-Ala-OEt BsOH salt, L-Ala-OEt 4-CBS salt, L-Ala-OEt 4-EBS salt, L-Ala-OEt 2,4-DMBS salt, and L-Ala-OEt 2,5-DMBS salt were measured in an amount of about 0.3 g each, left standing in a thermostatic chamber at a temperature of 24° C. and a humidity of 40 to 46% RH, and the hygroscopicity was compared based on the weight gain with the lapse of time. A part of the crystal of the L-Ala-OEt HCl salt was liquefied in 30 minutes, and the liquefied portion increased thereafter with the lapse of time. After 100 minutes, the whole mass became like a sherbet.

[2] = Experimental Example 5: comparison of hygroscopicity by weight gain over time (60 to 66% RH); settings: 24 EC
Method: The L-Ala-OMe HCl salt, L-Ala-OEt MsOH salt, L-Ala-OEt BsOH salt, L-Ala-OEt 4-CBS salt, L-Ala-OEt 4-EBS salt, L-Ala-OEt 2,4-DMBS salt, and L-Ala-OEt 2,5-DMBS salt were measured in an amount of about 0.3 g each, left standing in a thermostatic chamber at a temperature of 24 EC and a humidity of 60 to 66% RH, and the hygroscopicity was compared based on the weight gain with the lapse of time.

[3] = Experimental Example 7: evaluation of hygroscopicity by weight gain over time (60 to 66% RH); settings: 24 EC
Method: The L-Ala-OMe HCl salt, L-Ala-OMe 4-EBS salt, L-Ala-OMe 2,4-DMBS salt, and L-Ala-OMe 2,5-DMBS salt were measured in an amount of about 0.3 g each, left standing in a thermostatic chamber at temperature of 24 EC and a humidity of 60 to 66% RH, and the hygroscopicity was compared based on the weight gain with the lapse of time. A part of the crystal of the L-Ala-OMe HCl salt was liquefied in 10 minutes, and the entirety became a sherbet in 20 minute. The liquefied portion increased thereafter with the lapse of time. After 80 minutes, the whole was liquefied.

Row | Compound | weight increase rate (%) ([1]; 0 minutes) | weight increase rate (%) ([1]; 15 minutes) | weight increase rate (%) ([1]; 30 minutes) | weight increase rate (%) ([1]; 45 minutes) | weight increase rate (%) ([1]; 60 minutes) | weight increase rate (%) ([1]; 75 minutes) | weight increase rate (%) ([1]; 90 minutes) | weight increase rate (%) ([1]; 120 minutes) | weight increase rate (%) ([1]; 150 minutes) | weight increase rate (%) ([1]; 180 minutes) | weight increase rate (%) ([2]; 0 minutes) | weight increase rate (%) ([2]; 10 minutes) | weight increase rate (%) ([2]; 20 minutes) | weight increase rate (%) ([2]; 35 minutes) | weight increase rate (%) ([2]; 50 minutes) | weight increase rate (%) ([2]; 65 minutes) | weight increase rate (%) ([2]; 80 minutes) | weight increase rate (%) ([2]; 95 minutes) | weight increase rate (%) ([2]; 110 minutes) | weight increase rate (%) ([2]; 125 minutes) | also measured
1 | CCOC(=O)[C@H](C)N.O=S(=O)(O)c1ccc(Cl)cc1 [L-Ala-OEt 4-CBS salt, L-alanine ethyl ester 4-chlorobenzenesulfonate] | 0.00 | 1.55 | 1.51 | 1.48 | 1.81 | 2.01 | 2.14 | 2.30 | 2.17 | 2.27 | 0.00 | 2.26 | 2.83 | 3.38 | 3.77 | 4.10 | 4.31 | 4.46 | 4.58 | 4.70 | weight increase rate (%) ([2]; 140 minutes): 4.76%; weight increase rate (%) ([2]; 155 minutes): 4.82%; weight increase rate (%) ([2]; 170 minutes): 4.94%; weight increase rate (%) ([2]; 185 minutes): 4.94%; weight increase rate (%) ([2]; 200 minutes): 5.03%
2 | CCOC(=O)[C@H](C)N.O=S(=O)(O)c1ccccc1 [L-Ala-OEt BsOH salt, L-alanine ethyl ester benzenesulfonate] | 0.00 | 0.66 | 0.63 | 0.75 | 0.93 | 1.05 | 1.08 | 1.23 | 1.02 | 1.08 | 0.00 | 1.46 | 1.80 | 1.97 | 2.11 | 2.22 | 2.25 | 2.28 | 2.22 | 2.22 | weight increase rate (%) ([2]; 140 minutes): 2.22%; weight increase rate (%) ([2]; 155 minutes): 2.22%; weight increase rate (%) ([2]; 170 minutes): 2.28%; weight increase rate (%) ([2]; 185 minutes): 2.25%; weight increase rate (%) ([2]; 200 minutes): 2.25%
3 | L-alanine ethyl ester 2,4-dimethylbenzenesulfonate [L-Ala-OEt 2,4-DMBS salt] | 0.00 | 0.00 | 0.00 | 0.00 | 0.03 | 0.03 | 0.06 | 0.06 | 0.06 | 0.06 | 0.00 | 0.00 | 0.00 | 0.00 | 0.00 | 0.00 | 0.03 | 0.00 | 0.03 | 0.03 | weight increase rate (%) ([2]; 140 minutes): 0.03%; weight increase rate (%) ([2]; 155 minutes): 0.03%; weight increase rate (%) ([2]; 170 minutes): 0.06%; weight increase rate (%) ([2]; 185 minutes): 0.06%; weight increase rate (%) ([2]; 200 minutes): 0.06%
4 | L-alanine ethyl ester 2,5-dimethylbenzenesulfonate [L-Ala-OEt 2,5-DMBS salt] | 0.00 | 0.00 | 0.00 | 0.06 | 0.10 | 0.16 | 0.19 | 0.26 | 0.32 | 0.32 | 0.00 | 0.00 | 0.03 | 0.03 | 0.09 | 0.06 | 0.06 | 0.06 | 0.12 | 0.06 | weight increase rate (%) ([2]; 140 minutes): 0.09%; weight increase rate (%) ([2]; 155 minutes): 0.09%; weight increase rate (%) ([2]; 170 minutes): 0.09%; weight increase rate (%) ([2]; 185 minutes): 0.09%; weight increase rate (%) ([2]; 200 minutes): 0.12%
5 | L-alanine ethyl ester 4-ethylbenzenesulfonate [L-Ala-OEt 4-EBS salt] | 0.00 | 0.00 | 0.00 | 0.00 | 0.13 | 0.19 | 0.22 | 0.41 | 0.54 | 0.36 | 0.00 | 0.09 | 0.09 | 0.15 | 0.15 | 0.15 | 0.15 | 0.15 | 0.18 | 0.15 | weight increase rate (%) ([2]; 140 minutes): 0.18%; weight increase rate (%) ([2]; 155 minutes): 0.18%; weight increase rate (%) ([2]; 170 minutes): 0.18%; weight increase rate (%) ([2]; 185 minutes): 0.15%; weight increase rate (%) ([2]; 200 minutes): 0.21%
6 | L-alanine methyl ester 2,4-dimethylbenzenesulfonate [L-Ala-OMe 2,4-DMBS salt] |  |  |  |  |  |  |  |  |  |  |  |  |  |  |  |  |  |  |  |  | weight increase rate (%) ([3]; 0 min): 0.00%; weight increase rate (%) ([3]; 10 min): 0.33%; weight increase rate (%) ([3]; 20 min): 0.37%; weight increase rate (%) ([3]; 35 min): 0.37%; weight increase rate (%) ([3]; 50 min): 0.37%; weight increase rate (%) ([3]; 65 min): 0.37%; weight increase rate (%) ([3]; 80 min): 0.37%; weight increase rate (%) ([3]; 95 min): 0.37%; weight increase rate (%) ([3]; 110 min): 0.40%; weight increase rate (%) ([3]; 125 min): 0.43%; weight increase rate (%) ([3]; 140 min): 0.40%; weight increase rate (%) ([3]; 155 min): 0.43%; weight increase rate (%) ([3]; 170 min): 0.47%; weight increase rate (%) ([3]; 185 min): 0.50%; weight increase rate (%) ([3]; 200 min): 0.50%
7 | L-alanine methyl ester 2,5-dimethylbenzenesulfonate [L-Ala-OMe 2,5-DMBS salt] |  |  |  |  |  |  |  |  |  |  |  |  |  |  |  |  |  |  |  |  | weight increase rate (%) ([3]; 0 min): 0.00%; weight increase rate (%) ([3]; 10 min): 0.06%; weight increase rate (%) ([3]; 20 min): 0.06%; weight increase rate (%) ([3]; 35 min): 0.06%; weight increase rate (%) ([3]; 50 min): 0.03%; weight increase rate (%) ([3]; 65 min): 0.03%; weight increase rate (%) ([3]; 80 min): 0.03%; weight increase rate (%) ([3]; 95 min): 0.00%; weight increase rate (%) ([3]; 110 min): 0.03%; weight increase rate (%) ([3]; 125 min): 0.06%; weight increase rate (%) ([3]; 140 min): 0.00%; weight increase rate (%) ([3]; 155 min): 0.00%; weight increase rate (%) ([3]; 170 min): 0.03%; weight increase rate (%) ([3]; 185 min): 0.03%; weight increase rate (%) ([3]; 200 min): 0.06%
8 | L-alanine methyl ester 4-ethylbenzenesulfonate [L-Ala-OMe 4-EBS salt] |  |  |  |  |  |  |  |  |  |  |  |  |  |  |  |  |  |  |  |  | weight increase rate (%) ([3]; 0 min): 0.00%; weight increase rate (%) ([3]; 10 min): 0.06%; weight increase rate (%) ([3]; 20 min): 0.06%; weight increase rate (%) ([3]; 35 min): 0.06%; weight increase rate (%) ([3]; 50 min): 0.06%; weight increase rate (%) ([3]; 65 min): 0.03%; weight increase rate (%) ([3]; 80 min): 0.06%; weight increase rate (%) ([3]; 95 min): 0.06%; weight increase rate (%) ([3]; 110 min): 0.03%; weight increase rate (%) ([3]; 125 min): 0.06%; weight increase rate (%) ([3]; 140 min): 0.06%; weight increase rate (%) ([3]; 155 min): 0.06%; weight increase rate (%) ([3]; 170 min): 0.06%; weight increase rate (%) ([3]; 185 min): 0.06%; weight increase rate (%) ([3]; 200 min): 0.06%
